Reference: US20260355180A1, “COMPOSITIONS AND METHODS FOR SPLICEOSOME-TARGETED THERAPIES” (Institute for Cancer Research d/b/a The Research Institute …, priority 2022, published 2026)
“Also recorded” adds a separate entry of the source.

Experiments:
MEF RA cells = test: pMLKL western blot / necroptosis, MEF RHIM-A mutant (RA); type: cell-based, mouse; conditions: 2.5 nM PlaB, 18 hours
Experimental: (§1) FIG. 5A-5E: SF3B1 perturbation upregulates A-RNA and Z-nucleic acids in MEFs. (FIG. 5A) 5 nM of PlaB induces A-RNA and Z-Nucleic acids in ΔZBP1 MEF cells. (FIG. 5B) Quantification of A-RNA and Z-Nucleic acids. […] Plots of signal intensity are mean±SEM, two-tailed unpaired Student's t test *p<0.05, ***p<0.001, ****p<0.0001. 18 hours of PlaB treatment for IF, WB and rescue experiments. IF: 5 nM PlaB, WB and rescue experiments: 2.5 nM PlaB.
(§2) Since induction of Z-nAs can result in ZBP1-dependent necroptosis, we analyzed induction of necroptosis in necroptotic competent MEFs using spliceosome inhibition. […] We also determined that MEFs ΔZBP1, WT, and Flag-ZBP1 cells treated with PlaB began dying within 24hours after treatment. With MEF Flag-ZBP1 cells showing only 20% survival after 24 hours (FIG. 16).

ZBP1-KO RPPM631 cells = test: Viability of ZBP1-KO RPPM631 cells; type: cell-based, mouse; conditions: PlaB
Text: (§3) Next, we prepared ZBP1-KO RPPM631 cells to determine whether the necroptosis was ZBP-1 dependent.

MEF Flag-ZBP1 cells = test: pMLKL western blot / necroptosis, MEF Flag-ZBP1; type: cell-based, mouse; conditions: 2.5 nM PlaB, 18 hours, MEF Flag-ZBP1 (full-length ZBP1)
Experimental: as §1, §2

wild type RPPM631 cells = test: Viability of wild type RPPM631 cells; type: cell-based, mouse; conditions: PlaB
Text: as §3

MEF ΔZBP1 cells = test: Survival of PlaB treated MEF ΔZBP1; type: cell-based, mouse
Experimental: FIG. 16: Analysis of the effect of spliceosome inhibition on necroptosis in WT MEF cells. EV refers to cells treated with an empty vector.
as §2

H82 SCLC cells [1] = test: Antigen (HLA-ABC) and PD-L1 expression, H82; type: cell-based; conditions: 48 hours of 0.5 nM PlaB
Text: FIG. 3A-3D: SF3B1 inhibition induces a potent IFN response and increases expression of IFN-regulated proteins. […] Mean±SEM, two-tailed unpaired Student's t test *p<0.05, **p<0.01, ***p<0.001, ****p<0.0001.
We also observed that SF3B1 inhibition triggers robust anti-tumor response and upregulates IFN-β, IFN-γ, and IFN-responsive genes by real-time reverse-transcription quantitative polymerase chain reaction (rRT-qPCR) in H446 and H82 cells (FIGS. 3A and 3B). […] These observations indicate that spliceosome inhibition is useful as a targeted therapy for SCLCs.

H82 SCLC cells [2] = test: RIPK1 depletion rescue of PlaB cytotoxicity, H82; type: cell-based; conditions: 18 hours of PlaB, RIPK1 depleted H82
Experimental: (§4) FIG. 2A) SCLC cell lines (H446 and H82) and immortalized fibroblasts (FC1010 and HS68) cell survival curves after 72 hours of PlaB treatment. FIG. 2B) RIPK1 depletion rescues H82 and H446 cell survival after 18 hours of PlaB treatment. FIG. 2C) Western blot showing RIPK1 protein depletion. Mean±SEM, Welch's t test *p<0.05, **p<0.01.
(§5) Cancer deregulates splicing^31,32, and we hypothesized that hyper-proliferative SCLCs are dependent on splicing machineries for increased tumorigenicity^90.

H82 cells = test: MAVS knock out rescue of PlaB-mediated cell death, H82; type: cell-based; conditions: MAVS KO H82; data not shown
Text: Currently, ZBP1 and ADAR1 are the only two known proteins harbor Zα and interact with Z-NAs^104-109.

H446 KO cells = test: CytoToxicity of PlaB in TNFR1-, TRADD-, FADD-, CASP8-KO H446 cells (trypan blue); type: cell-based, human; conditions: 2.5 nM PlaB, 18 hrs
Text: […]: CytoToxicity analysis of PlaB in TNFR1-KO and TRADD-KO H82 cells […] and H446 cells (FIG. 16B). CytoToxicity analysis of PlaB in FADD-KO and CASP8-KO H82 cells (FIG. 16C) and H446 cells (FIG. 16D). EV refers to cells treated with an empty vector.
Since RIPK1 mediated apoptosis can be triggered by TNF110, TNFR1 and TRADD-KO SCLC cell lines are generated herein for subsequent studies. Here, we utilize CRISPR-Cas9 KO to effectively knockout TNFR1 and TRADD in SCLC cells. To confirm depletion of TNFR1 and TRADD proteins, cell lysates are collected and western blot analysis is performed. The following experiments are performed using the TNFR1 and TRADD-KO SCLC cells generated above.
H82 and H446 WT and TNFR1 and TRADD-KO cells generated above are treated with DMSO or 2.5 nM PlaB for 18 hrs. Then, the cells are counted using 0.4% trypan blue solution assessing total viable cells and the percent of cell survived with the H82 and H446 WT cells is compared. (FIG. 15A-15B) This allows us to confirm whether TNF is partially or fully responsible for PlaB-mediated cell death in SCLC cell lines.
Additionally, we analyzed the role played by FADD and CAPS8 in rescuing H82 and H446 cells from PlaB induced toxicity. Using the methods described above for the generation of TNFR1 and TRADD-KO cells, H82 and H446 FADD-KO cells and H82 and H446 CASP8-KO cells were generated. These cells were then treated with DMSO or 2.5 nM PlaB for 18 hrs and compared to WT H82 and H446 cells. […] (FIG. 15C and FIG. 15D)

H82 SCLC cells [3] = test: Cell survival after PlaB treatment, H82; type: cell-based
Experimental: as §4, §5

RPP631 cells in mice = test: Combination therapy with PlaB and αPD-1 in mice, tumor size; type: in vivo; conditions: PlaB intra-tumorally and αPD-1 intra-peritoneally, days 14, 17, 20, 22; vs IgG or anti-PD1 only; 24 days
Experimental: FIG. 17: Analysis of combination therapy in mouse model using PlaB and αPD-1.
This combination therapy was tested in RPP631 cells in mice. At day 0, the mice were injected with 8×10^6 RPP631 cells. At days 14, 17, 20, and 22, the mice were injected with PlaB or a vehicle intra-tumorally and IgG or αPD-1 intra-peritoneally. The tumors were then measured over 24 days. (FIG. 17).

## CCC(O)C(C)C1OC1CC(C)C=CC=C(C)C1OC(=O)CC(O)CCC(C)(O)C(OC(C)=O)C=CC1C (centres unmarked) [PlaB, Pladienolide B]
MEF RA cells; MEF RA
  pMLKL (necroptosis): not triggered
MEF RA cells; MEF RHIM-A mutant
  PlaB-mediated necroptosis: avoid PlaB-mediated necroptosis
ZBP1-KO RPPM631 cells
  viability: only a minor decrease in viability
MEF Flag-ZBP1 cells
  pMLKL (necroptosis): triggered pMLKL; also recorded: induction of pMLKL
Wild type RPPM631 cells
  viability: significant decrease in viability
MEF ΔZBP1 cells
  time after treatment at which cells began dying: ≤ 24 h
H82 SCLC cells [1]
  PD-L1 expression: effectively upregulates
  antigen expression: effectively upregulates
H82 SCLC cells [2]
  cell survival upon RIPK1 depletion: rescues
H82 cells
  rescue of PlaB-mediated cell death by MAVS knock out: only minimally rescue
H446 KO cells; H446 CASP8-KO
  rescue from PlaB toxicity by CASP8-KO: effectively rescued
H446 KO cells; H446 FADD-KO
  rescue from PlaB toxicity by FADD-KO: effectively rescued
H446 KO cells; H446 TNFR1-KO
  rescue from PlaB toxicity by TNFR1-KO: effectively rescued
H446 KO cells; H446 TRADD-KO
  rescue from PlaB toxicity by TRADD-KO: effectively rescued
H82 SCLC cells [3]; 72 hours of PlaB, H82
  cell survival: drastically reduces cell survival; also recorded: dramatically reduces SCLC cell survival
H82 SCLC cells [3]; nanomolar concentration of PlaB
  sensitivity to SF3B1 inhibition: particularly sensitive
RPP631 cells in mice
  tumor size: significantly reduced tumor size
